Measurements: PMC7010297, “How the initiating ribosome copes with ppGpp to translate mRNAs” (PLoS Biology, 2020)
pKi: −log10 of the molar value. Several values for one entry are separate records, joined by “and”; a condition that tells them apart may be missing. Identical values can stand only once. Like-named read-outs stand apart in the source and are kept apart here.

Test system: mRNA translation (protein synthesis)
Assay: In vitro translation in pure cell-free system (PURExpress, Lumio labelling)
Format: biochemical
Settings: for Ki: read-out: Translation Efficiency Ki (μM), replicates; for pKi: read-out: Translation Efficiency Ki Average
Experimental: Fig 5 Permissive ppGpp-mediated inhibition of mRNA translation. (A) Scheme of the translating 70S complex. (B) In vitro translation of mTufA and mInfA derivatives harboring a coding sequence for the Lumio labelling system (Experimental conditions and analysis). […] Synthetized proteins were fluorescently labelled and resolved by 20% SDS-PAGE. The resulting images were analyzed by pixel densitometry using ImageJ [37] to estimate translation efficiencies (TEs). […] (D) Comparison of inhibitory constants for both mRNAs as measured during 30S IC formation (white) or overall translation efficiency (gray). Mean and standard deviations from three measurements are plotted (S1 Data). GTP, guanosine triphosphate; mInfA, InfA mRNA; mTufA, TufA mRNA; TE, translation efficiency.
In order to visualize overall protein synthesis, we used a coupled transcription-translation cell-free system. Reactions were carried out in 10 μL of the purified components from the PURExpress In Vitro Protein Synthesis Kit (E6800S/L, NEB, Ipswich, Massachusetts) with the corresponding templates. These reactions were incubated at 37°C for 2 hours. […] After incubation, sample processing and fluorescent labelling were carried out as described by the Lumio Green Detection Kit (LC6090, ThermoScientific, Waltham, Massachusetts) for in vitro reactions. Finally, 20 μL of labelled samples were loaded into 20% SDS-PAGE gels and visualized under a Blue-light LED transilluminator with orange filter (Cleaver Scientific LTD, Warwickshire, UK). Gel quantification was performed by pixel densitometry analysis using ImageJ software.

In the case of Nc1nc2c(ncn2[C@@H]2O[C@H](COP(=O)(O)OP(=O)(O)O)[C@@H](OP(=O)(O)OP(=O)(O)O)[C@H]2O)c(=O)[nH]1 [ppGpp], the “P.D. Average” value (mInfA, Log [ppGpp] 1.00) was 2.85 a.u.x10^4, the “P.D. Replicates (a.u.x10^4)” value (mInfA, Log [ppGpp] 1.00) was 2.78 a.u.x10^4 and 2.92 a.u.x10^4 and 2.86 a.u.x10^4 and the “P.D. Average” value (mInfA, Log [ppGpp] 2.40) was 2.28 a.u.x10^4. The “P.D. Replicates (a.u.x10^4)” value (mInfA, Log [ppGpp] 2.40) was 2.16 a.u.x10^4 and 2.34 a.u.x10^4 and 2.33 a.u.x10^4, the “P.D. Average” value (mInfA, Log [ppGpp] 2.70) was 1.67 a.u.x10^4 and the “P.D. Replicates (a.u.x10^4)” value (mInfA, Log [ppGpp] 2.70) was 1.54 a.u.x10^4 and 1.80 a.u.x10^4 and 1.68 a.u.x10^4. For the same compound, the “P.D. Average” value (mInfA, Log [ppGpp] 3.00) was 0.00 a.u.x10^4, the “P.D. Replicates (a.u.x10^4)” value (mInfA, Log [ppGpp] 3.00) was 0.00 a.u.x10^4 and the “P.D. Average” value (mInfA, Log [ppGpp] 3.30) was 0.00 a.u.x10^4. For the same compound, the “P.D. Replicates (a.u.x10^4)” value (mInfA, Log [ppGpp] 3.30) was 0.00 a.u.x10^4, the “P.D. Average” value (mInfA, Log [ppGpp] 3.60) was 0.00 a.u.x10^4 and the “P.D. Replicates (a.u.x10^4)” value (mInfA, Log [ppGpp] 3.60) was 0.00 a.u.x10^4. For the same compound, the Ki (mRNA mInfA) was 0.816 µM and 0.72 µM and 0.838 µM, the pKi (mRNA mInfA) was 6.10 and the Ki (mRNA mTufA) was 2.23 µM and 2.32 µM and 2.09 µM. For the same compound, the pKi (mRNA mTufA) was 5.66, the “P.D. Average” value (mTufA, Log [ppGpp] 1.00) was 6.41 a.u.x10^4 and the “P.D. Replicates (a.u.x10^4)” value (mTufA, Log [ppGpp] 1.00) was 6.33 a.u.x10^4 and 6.50 a.u.x10^4 and 6.41 a.u.x10^4. The “P.D. Average” value (mTufA, Log [ppGpp] 2.40) was 5.17 a.u.x10^4, the “P.D. Replicates (a.u.x10^4)” value (mTufA, Log [ppGpp] 2.40) was 5.12 a.u.x10^4 and 5.25 a.u.x10^4 and 5.15 a.u.x10^4 and the “P.D. Average” value (mTufA, Log [ppGpp] 2.70) was 4.76 a.u.x10^4. The “P.D. Replicates (a.u.x10^4)” value (mTufA, Log [ppGpp] 2.70) was 4.72 a.u.x10^4 and 4.86 a.u.x10^4 and 4.70 a.u.x10^4, the “P.D. Average” value (mTufA, Log [ppGpp] 3.00) was 3.38 a.u.x10^4 and the “P.D. Replicates (a.u.x10^4)” value (mTufA, Log [ppGpp] 3.00) was 3.31 a.u.x10^4 and 3.47 a.u.x10^4 and 3.35 a.u.x10^4. The “P.D. Average” value (mTufA, Log [ppGpp] 3.30) was 2.72 a.u.x10^4, the “P.D. Replicates (a.u.x10^4)” value (mTufA, Log [ppGpp] 3.30) was 2.68 a.u.x10^4 and 2.81 a.u.x10^4 and 2.66 a.u.x10^4 and the “P.D. Average” value (mTufA, Log [ppGpp] 3.60) was 1.21 a.u.x10^4. The “P.D. Replicates (a.u.x10^4)” value (mTufA, Log [ppGpp] 3.60) was 1.18 a.u.x10^4 and 1.24 a.u.x10^4 and 1.21 a.u.x10^4.
